How the values were obtained:
[1] = target: T1, human glucocorticoid receptor (GR) complex (Homo sapiens, UniProt P04150); assay: Glucocorticoid receptor competitive binding assay (fluorescence polarization); conditions: competition with TAMRA-labeled dexamethasone
T1 construct: made in house; host or cells: insect expression system (baculovirus lysate)
T1 sequence (P04150 1-777): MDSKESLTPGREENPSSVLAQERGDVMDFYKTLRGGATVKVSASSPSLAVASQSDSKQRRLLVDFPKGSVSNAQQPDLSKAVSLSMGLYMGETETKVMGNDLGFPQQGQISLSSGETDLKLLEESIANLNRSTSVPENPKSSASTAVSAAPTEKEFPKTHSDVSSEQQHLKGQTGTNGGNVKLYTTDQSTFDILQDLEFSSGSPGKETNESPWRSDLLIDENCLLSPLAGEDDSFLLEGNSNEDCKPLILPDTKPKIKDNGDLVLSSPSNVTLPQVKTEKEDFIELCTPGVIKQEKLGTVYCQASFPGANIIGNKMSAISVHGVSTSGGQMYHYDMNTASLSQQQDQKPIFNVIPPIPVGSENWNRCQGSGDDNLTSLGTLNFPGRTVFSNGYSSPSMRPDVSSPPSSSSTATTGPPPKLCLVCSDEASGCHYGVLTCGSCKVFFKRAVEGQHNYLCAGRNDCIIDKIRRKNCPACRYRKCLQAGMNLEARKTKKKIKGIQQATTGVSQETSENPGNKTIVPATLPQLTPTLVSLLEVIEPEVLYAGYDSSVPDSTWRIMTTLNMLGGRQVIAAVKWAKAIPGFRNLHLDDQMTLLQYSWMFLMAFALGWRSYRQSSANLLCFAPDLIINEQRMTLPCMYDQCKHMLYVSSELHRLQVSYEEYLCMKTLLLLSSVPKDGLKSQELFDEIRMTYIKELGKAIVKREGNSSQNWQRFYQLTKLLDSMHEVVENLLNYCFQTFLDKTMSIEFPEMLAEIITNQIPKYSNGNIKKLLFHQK
Method in brief: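 FP competition against 15 nM TAMRA-labeled dexamethasone (stock added) for GR complex in baculovirus insect-cell lysate, buffer 10 mM TES, 50 mM KCl, 20 mM molybdate, pH 7.4 with 1 mM DTT. Incubated 1 h at room temperature, read at ex 550/em 580 nm; IC50 from 4-parameter logistic fit.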

glucocorticoid receptor = assay: One or more of the above assays (GR binding and GR cell assays; not specified which); type: cell-based; conditions: in one or more of the above assays
Experimental: This assay uses fluorescence polarization (FP) to quantitate the ability of test compounds to compete with tetramethyl rhodamine (TAMRA)-labeled dexamethasone for binding to a human glucocorticoid receptor (GR) complex prepared from an insect expression system. The assay buffer was: 10 mM TES, 50 mM KCl, 20 mM Na2MoO4.2H2O, 1.5 mM EDTA, 0.04% w/v CHAPS, 10% v/v glycerol, 1 mM dithiothreitol, pH 7.4. Test compounds were dissolved to 1 mM in neat DMSO and then further diluted to 10×assay concentration in assay buffer supplemented with 10% v/v DMSO. Test compounds were serially diluted at 10×assay concentrations in 10% DMSO-containing buffer in 96-well polypropylene plates. […] Positive controls were reaction mixtures containing no test compound; negative controls (blanks) were reaction mixtures containing 0.7 μM to 2 μM dexamethasone. […] IC50 values were determined by iterative non-linear curve fitting of the FP signal data to a 4-parameter logistic equation.
B. Glucocorticoid Receptor Cell Assays
1. Induction of Aromatase in Fibroblasts (Cell Assay for Transactivation)
Dexamethasone, a synthetic ligand to the glucocorticoid receptor (GR), induces expression of aromatase in human foreskin fibroblast cells. The activity of aromatase is measured by the conversion of testosterone to estradiol in culture media.
On the day of the experiment, the media in the wells is replaced with fresh media. Cells are treated with test compounds to final concentrations of 10^−5 M to 10 ^−8 M, and testosterone to a final concentration of 300 ng/mL. Each well has a total volume of 100 μL. Samples are made in duplicates. Control wells include: (a) wells that receive testosterone only, and (b) wells that receive testosterone plus 2 μM of dexamethasone to provide maximum induction of aromatase. Plates are incubated at 37° C. overnight (15 to 18 hours), and supernatants are harvested at the end of incubation. […] The amount of estradiol is inversely proportional to the ELISA signals in each well. The extent of aromatase induction by test compounds is expressed as a relative percentage to dexamethasone. EC50 values of test compounds are derived by non-linear curve fitting.
2. Inhibition of IL-6 Production in Fibroblasts (Cell Assay for Transrepression)
Human foreskin fibroblast cells produce IL-6 in response to stimulation by pro-inflammatory cytokine IL-1.
On the next day, media in the wells is replaced with fresh media. Cells are treated with IL-1 (rhIL-1α, R&D Systems Cat. No. 200-LA) to a final concentration of 1 ng/mL, and with test compounds to final concentrations of 10 ^−5 M to 10 ^−8 M, in a total volume of 200 μL per well. Samples are done in duplicates. […] Positive control wells receive IL-1 only and represent maximum (or 100%) amount of IL-6 production. Plates are incubated at 37° C. overnight (15 to 18 hours), and supernatants are harvested at the end of incubation. IL-6 levels in the supernatants are determined by the ELISA kits for IL-6 (MedSystems Diagnostics GmbH, Vienna, Austria, Cat. No. BMS213TEN) according to manufacture's instructions. The extent of inhibition of IL-6 by test compounds is expressed in percentage relative to positive controls. IC50 values of test compounds are derived by non-linear curve fitting.
Evaluation of agonist or antagonist activity of compounds binding to the glucocorticoid receptor may be determined by any of the assays.
3. Modulation of Tyrosine Aminotransferase (TAT) Induction in Rat Hepatoma Cells
Testing of compounds for agonist or antagonist activity in induction of tyrosine aminotransferase (TAT) in rat hepatoma cells.
H4-II-E-C3 cells were incubated overnight in 96 well plates (20,000 cells/100 μL/well) in MEM medium containing 10% heat inactivated FBS and 1% nonessential amino acids. On the next day, cells were stimulated with the indicated concentrations of dexamethasone or test compound (dissolved in DMSO, final DMSO concentration 0.2%) for 18 hours. Control cells were treated with 0.2% DMSO.

IC50 [1] [nM]	SMILES	activity as agonists of the glucocorticoid receptor function (glucocorticoid receptor)
≤ 100	CC(C)(CC(O)(Cc1cc(C(F)(F)F)cc(Cl)c1F)C(F)(F)F)c1cccc2ccoc12 (stereo not shown) [4-Benzofuran-7-yl-2-(3-chloro-2-fluoro-5-trifluoromethylbenzyl)-1,1,1-trifluoro-4-methylpentan-2-ol]	activity as agonists
≤ 100	COc1ccc(F)cc1C(C)(C)CC(O)(Cc1cc(C)cc(C)c1)C(F)(F)F (stereo not shown) [2-(3,5-Dimethylbenzyl)-1,1,1-trifluoro-4-(5-fluoro-2-methoxyphenyl)-4-methylpentan-2-ol]	activity as agonists
≤ 100	CC(C)(CC(O)(Cc1cc(Br)cc(Br)c1)C(F)(F)F)c1cc(F)ccc1O (stereo not shown) [2-[3-(3,5-Dibromobenzyl)-4,4,4-trifluoro-3-hydroxy-1,1-dimethylbutyl]-4-fluorophenol]	activity as agonists
≤ 100	COc1ccc(F)cc1C(C)(C)CC(O)(Cc1ccc(C#N)cc1Cl)C(F)(F)F (stereo not shown) [3-Chloro-4-[4-(5-fluoro-2-methoxyphenyl)-2-hydroxy-4-methyl-2-trifluoromethylpentyl]benzonitrile]	activity as agonists
≤ 100	CC(C)(CC(O)(Cc1ccc(C#N)cc1Cl)C(F)(F)F)c1cccc2c1OCC2 (stereo not shown) [3-Chloro-4-[4-(2,3-dihydrobenzofuran-7-yl)-2-hydroxy-4-methyl-2-trifluoromethylpentyl]benzonitrile]	activity as agonists
≤ 100	COc1ccc(F)cc1C(C)(C)CC(O)(Cc1cc(C)cc(Cl)c1)C(F)(F)F (stereo not shown) [2-(3-Chloro-5-methylbenzyl)-1,1,1-trifluoro-4-(5-fluoro-2-methoxyphenyl)-4-methylpentan-2-ol]	activity as agonists
≤ 100	COc1ccc(F)cc1C(C)(C)CC(O)(Cc1cc(Br)cc(Br)c1)C(F)(F)F (stereo not shown) [2-(3,5-Dibromobenzyl)-1,1,1-trifluoro-4-(5-fluoro-2-methoxyphenyl)-4-methylpentan-2-ol]	activity as agonists
≤ 100	Cc1cc(C)cc(CC(O)(CC(C)(C)c2cccc3c2OCC3)C(F)(F)F)c1 (stereo not shown) [4-(2,3-Dihydrobenzofuran-7-yl)-2-(3,5-dimethylbenzyl)-1,1,1-trifluoro-4-methylpentan-2-ol]	activity as agonists
≤ 100	COc1ccc(F)cc1C(C)(C)CC(O)(Cc1cc(C(F)(F)F)cc(Cl)c1F)C(F)(F)F (stereo not shown) [2-(3-Chloro-2-fluoro-5-trifluoromethylbenzyl)-1,1,1-trifluoro-4-(5-fluoro-2-methoxyphenyl)-4-methylpentan-2-ol]	activity as agonists
≤ 100	Cc1cc(Cl)cc(CC(O)(CC(C)(C)c2cc(F)ccc2O)C(F)(F)F)c1 (stereo not shown) [2-[3-(3-Chloro-5-methylbenzyl)-4,4,4-trifluoro-3-hydroxy-1,1-dimethylbutyl]-4-fluorophenol]	activity as agonists
≤ 100	COc1ccc(F)cc1C(C)(C)CC(O)(Cc1cc(Br)cc(C)c1F)C(F)(F)F (stereo not shown) [2-(5-Bromo-2-fluoro-3-methylbenzyl)-1,1,1-trifluoro-4-(5-fluoro-2-methoxyphenyl)-4-methylpentan-2-ol]	activity as agonists

Second part, the compound before the results:

SMILES	IC50 [1] [nM]	activity as agonists of the glucocorticoid receptor function (glucocorticoid receptor)
CC(C)(CC(O)(Cc1cc(C(F)(F)F)cc(Cl)c1F)C(F)(F)F)c1cc(Br)cc2c1OCC2 (stereo not shown) [4-(5-Bromo-2,3-dihydrobenzofuran-7-yl)-2-(3-chloro-2-fluoro-5-trifluoromethylbenzyl)-1,1,1-trifluoro-4-methylpentan-2-ol]	–	activity as agonists
COc1c(C(C)(C)CC(O)(Cc2ccc(C#N)cc2Cl)C(F)(F)F)ccc2ccccc12 (stereo not shown) [3-Chloro-4-[2-hydroxy-4-(1-methoxynaphthalen-2-yl)-4-methyl-2-trifluoromethylpentyl]benzonitrile]	–	activity as agonists
CC(C)(CC(O)(Cc1ccc(C#N)cc1Cl)C(F)(F)F)c1cccc(F)c1 (stereo not shown) [3-Chloro-4-[4-(3-fluorophenyl)-2-hydroxy-4-methyl-2-trifluoromethylpentyl]benzonitrile]	–	activity as agonists
Cc1ccc(C(C)(C)CC(O)(Cc2ccc(C#N)cc2Cl)C(F)(F)F)cc1 (stereo not shown) [3-Chloro-4-(2-hydroxy-4-methyl-4-p-tolyl-2-trifluoromethylpentyl)benzonitrile]	–	activity as agonists
COc1ccc(F)cc1C1(CC(O)(Cc2ccc(C#N)cc2Cl)C(F)(F)F)CC1 (stereo not shown) [3-Chloro-4-{3,3,3-trifluoro-2-[1-(5-fluoro-2-methoxyphenyl)cyclopropylmethyl]-hydroxypropyl}benzonitrile]	–	activity as agonists
COc1ccc(F)cc1C(C)(C)CC(O)(Cc1cc(C)cc(C)c1C#N)C(F)(F)F (stereo not shown) [2-[4-(5-Fluoro-2-methoxyphenyl)-2-hydroxy-4-methyl-2-trifluoromethylpentyl]-4,6-dimethylbenzonitrile]	–	activity as agonists
CC(C)(CC(O)(Cc1ccc(C#N)cc1Cl)C(F)(F)F)c1cc(F)cc2c1OCC2 (stereo not shown) [3-Chloro-4-[4-(5-fluoro-2,3-dihydrobenzofuran-7-yl)-2-hydroxy-4-methyl-2-trifluoromethylpentyl]benzonitrile]	–	activity as agonists
N#Cc1ccc(CC(O)(CC2(c3cc(F)ccc3O)CC2)C(F)(F)F)c(Cl)c1 (stereo not shown) [3-Chloro-4-{3,3,3-trifluoro-2-[1-(5-fluoro-2-hydroxyphenyl)cyclopropylmethyl]-2-hydroxypropyl}benzonitrile]	–	activity as agonists
COc1ccc(F)cc1C(C)(C)CC(O)(Cc1ccc(C=O)cc1Cl)C(F)(F)F (stereo not shown) [3-Chloro-4-[4-(5-fluoro-2-methoxyphenyl)-2-hydroxy-4-methyl-2-trifluoromethylpentyl]benzaldehyde]	–	activity as agonists
